Usually Kd stands for the free concentration of one partner at which half of the binding sites on the other are occupied at equilibrium, for simple one-to-one binding.

This is an account of results in publication PMC10531055, “Molecular Mechanism of Mutational Disruption of DCLK1 Autoinhibition Provides a Rationale for Inhibitor Screening” (International Journal of Molecular Sciences, 2023).

This assay has as its target T1, DCLK1 (Doublecortin-like kinase 1) (Homo sapiens, UniProt O15075).
T1 construct: kinase domain (KD)
T1 sequence (O15075 390-647 limits assumed): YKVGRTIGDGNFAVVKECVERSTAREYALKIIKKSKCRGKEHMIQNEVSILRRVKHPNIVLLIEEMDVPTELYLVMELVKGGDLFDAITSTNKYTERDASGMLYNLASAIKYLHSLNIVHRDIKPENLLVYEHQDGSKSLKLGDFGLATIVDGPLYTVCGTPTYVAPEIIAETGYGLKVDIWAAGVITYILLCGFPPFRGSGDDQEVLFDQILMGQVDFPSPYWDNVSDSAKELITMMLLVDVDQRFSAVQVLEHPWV
Briefly: SPR (Biacore X-100, kinase domain immobilized on CM5 chip). In kind it is binding. For orientation: In SPR one partner is held on a chip, and binding of the other changes the refractive index at the surface.

Structures are written as SMILES.

`CCN1CCN(Cc2ccc(Nc3ncc(F)c(-c4cc(F)c5nc(C)n(C(C)C)c5c4)n3)nc2)CC1` [6ZV, Abemaciclib] had an equilibrium dissociation constant (Kd) of 1920 nM.
